# From patent US9335323B2, “Method for sorting of pluripotent cells” (KYOTO UNIVERSITY, priority 2012, dated 2016)
# Experiments:
# [1] = test system: human iPS cells; experiment: Sub-cellular localization in human iPS cells (co-staining with MitoRed, CCCP); type: cell-based; settings: for cells in which mitochondria are stained: human iPS cells and feeder cells; for sub-cellular localization: human iPS cells on feeder cells
# Method: Human iPS cells (clone#201B7) were plated on SNL feeder cells in 24-well plate. One day after plating, the cells were incubated with 1 μM Compound 1 for 4 hours at 37° C. After removing Compound 1 by washing with PBS, the cells were incubated with 9.6 nM MitoRed for 30 min at 37° C. The cells were rinsed with PBS and kept in fresh medium (without dye). Fluorescence microscopic images were taken by using Carl Zeiss Axioinvert 100M
# [2] = test system: human ES cells; experiment: Fluorescence microscopic imaging of human ES cells and retinoic acid-differentiated cells; type: cell-based; settings: 1 μM, 2 hours
# Method: The hES cell line KhES-1 was maintained as described previously (Suemori, H. et al. Biochem. Biophys. Res. Commun. 2006, 345, 926-932). To induce differentiation of hESCs, cells seeded onto Matrigel-coated plate were cultured for 4 days with 500 nM all-trans retinoic acid (Sigma R2625) in DMEM supplemented with 10% FBS. After staining with 1 μM Compound 1 for 2 hours, cells were rinsed with PBS and kept in fresh medium (without dye). Fluorescent microscopy was performed by using Olympus IX71 with DP72.
# [3] = test system: human iPS cells; experiment: Flow cytometry (FACS) of mixtures of human iPS cells and feeder cells; type: cell-based
# Method: Human iPS cells (clone#201B7) cells (Takahashi, K. et al. Cell 2007, 131, 861-872) were plated at a density of 2×10^5 cells/well of 6-well plate on SNL feeder cells (McMahon, A. P. and Bradley, A., Cell, 62, 1073-1085, 1990). Six days after plating, the cells were incubated with 2 μM Compound 1 (Table 2) for 3 hours (fluorescence microscopic images were taken at this point). The cells were dissociated with Accutase (Invitrogen) into single cells and stained with a-SSEA-4-Alexa647 for 30 min at room temperature. After washing, FACS (FACS Aria II) analysis was performed.
# [4] = target: T1, ABCG2 (Homo sapiens, UniProt Q9UNQ0); experiment: Accumulation of fluorescent compound in cells with different ABCG2 expression; type: cell-based; settings: stained cells regardless of expression level
# T1 sequence (Q9UNQ0 1-655): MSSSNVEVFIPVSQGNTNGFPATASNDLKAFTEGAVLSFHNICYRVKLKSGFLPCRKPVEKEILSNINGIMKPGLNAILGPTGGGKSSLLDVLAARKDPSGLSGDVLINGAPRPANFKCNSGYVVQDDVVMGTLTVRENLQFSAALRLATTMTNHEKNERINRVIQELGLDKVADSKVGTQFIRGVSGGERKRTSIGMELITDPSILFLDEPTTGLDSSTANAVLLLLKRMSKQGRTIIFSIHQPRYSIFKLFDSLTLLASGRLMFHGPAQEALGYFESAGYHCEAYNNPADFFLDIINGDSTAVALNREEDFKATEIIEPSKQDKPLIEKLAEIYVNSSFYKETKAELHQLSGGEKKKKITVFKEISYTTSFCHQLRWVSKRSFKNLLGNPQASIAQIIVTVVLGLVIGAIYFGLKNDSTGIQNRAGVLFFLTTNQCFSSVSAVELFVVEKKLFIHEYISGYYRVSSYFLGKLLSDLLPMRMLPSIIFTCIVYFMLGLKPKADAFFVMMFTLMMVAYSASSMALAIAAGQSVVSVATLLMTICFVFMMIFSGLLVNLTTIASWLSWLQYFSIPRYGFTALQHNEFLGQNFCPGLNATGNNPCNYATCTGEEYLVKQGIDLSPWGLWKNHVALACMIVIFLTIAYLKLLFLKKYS
# Method: (§1) Cells were subcultured in 35 mm/glass base dish (IWAKI) at a density of 5×10^5 cells per dish in DMEM containing 10% FBS for 24-48 hours. Then, cells were incubated in DMEM containing 10% FBS and the compounds for 2 hours at 37° C., washed with phosphate-buffered saline (PBS), and observed using a confocal microscope (LSM 700; Carl Zeiss).
# (§2) MDR1-expressing model cell lines (KB/MDR1) were established from KB3-1, a cell line with no MDR1 expression. KB/MDR1 and KB3-1 were treated with Compound 1 for 2 hrs. Then, their images were observed under a fluorescent microscope (FIG. 4c, 4d). […] Similar experiments were conducted with ABCG2 and ABCC1 (MRP1).
# [5] = test system: human ES cells; experiment: Microscopy and FACS of human ES cells and differentiated cells; type: cell-based
# Method: Cells were prepared as above. After staining with 1 μM Compound 1 for 1 hour, cells were rinsed with PBS and cultured for additional 24 hours. Fluorescent microscopy was performed by using Olympus IX71 with DP72. CsA was added at the concentration of 10 μM during staining with Compound 1 and following culture until analysis. For FACS analysis, the cells were washed twice with ice-cold PBS and then dissociated with 0.25% trypsin-EDTA into a single cell suspension for direct analysis. The proportions of cells with Compound 1 were examined on a FACSCalibur flow cytometer (Becton Dickenson, Calif., USA) with reference to a baseline of untreated undifferentiated or differentiated hESCs.
# [6] = target: ABCC1 (MRP1) (Homo sapiens, UniProt P33527); experiment: Accumulation of fluorescent compound in cells with different ABCC1 (MRP1) expression; type: cell-based; settings: stained cells regardless of expression level
# Method: as §1, §2
# [7] = test system: human iPS cells; experiment: Fluorescence microscopic imaging of partially differentiated human iPS cells (donut-shaped colonies); type: cell-based; settings: over-grown, 4 μM, 4.5 hours
# Method: Human iPS cells (clone#201B7) were plated on SNL feeder cells in 96-well plate. […] These cells were incubated with 4 μM Compound 1 for 4.5 hours at 37° C. Fluorescence microscopic images were taken by using Carl Zeiss Axioskop.
# [8] = target: T2, ABCB1 (MDR1) (Homo sapiens, UniProt P08183); experiment: Accumulation of fluorescent compound in KB3-1 and KB/MDR1 cells; type: cell-based
# T2 construct: expressed in transfected cells; host or cells: KB/MDR1 (derived from KB3-1)
# Method: (§3) KB/MDR1, stably expressing human MDR1, and KB3-1 host cells (Ueda, K et al., PNAS 84, 3004-3008, 1987) were maintained in DMEM supplemented with 10% FBS in a humidified incubator (5% CO2) at 37° C. Cells were subcultured in 35 mm/glass base dish (IWAKI) at a density of 5×10^5 cells per dish in DMEM containing 10% FBS for 24-48 hours.
# [9] = test system: ABCB1 (MDR1); experiment: as above; type: cell-based, human; settings: KB3-1 cells with no MDR1 expression, 2 hrs
# Method: as §3
# [10] = test system: human iPS cells; experiment: Image-based screening: fluorescence staining of human iPS cells versus feeder cells; type: cell-based; settings: fluorescence images, human iPS cells on SNL feeder cells, FIG. 1A
# Method: Fluorescent-compound libraries were provided from Young-Tae Chang's group (Ahn, Y-H., Lee, J-S. and Chang, Y-T. J. Am. Chem. Soc. 2007, 129, 4510-4511). Human iPS cells (clone#[…]) were plated on SNL feeder cells in 96-well plate. Five days after plating, fluorescent compounds were added at the final concentration of 4 μM. After incubation overnight, fluorescence microscopic images were taken by using Carl Zeiss Axioskop.
# [11] = test system: mitochondrial proteins of human iPS cells; experiment: 2-DE and mass analysis of mitochondrial proteins labeled in human iPS cells; type: cell-based; settings: 1 μM, 4 hours, 2-dimensional SDS-PAGE
# Method: Human iPS cells were treated with the chloroacetyl derivative of Compound 1 (Compound 22) (1 μM) for 4 hours, and then washed twice with PBS. After treatment with CTK solution (Reprocell) to remove SNL feeder cells, human iPS cells were harvested with treatment of accutase. Mitochondria fraction was obtained from the cell pellet by using ProteoExtract® Cytosol/Mitochondria Fractionation kit according to the manufacturer's instruction. Isoelectric focusing (IEF) was performed by using ampholine (pH 3.5-10, Phamalyte 3-10 for IEF, GE Healthcare). Then, the IEF strips were separated on 10% SDS-PAGE gel for 2D analysis. 2D fluorescence image was acquired using the Typhoon 9400 scanner (GE healthcares) at excitation/emission wavelengths of 532 nm/580 nm. The fluorescence-labeled spots were excised from the gel for mass analysis.
# [12] = doubly stained with Compound 1 and anti-SSEA-4 antibody
# [13] = mixture of human iPS cells and feeder cells, 2 μM, 3 hours, flow cytometry
# T2 sequence (P08183 whole entry): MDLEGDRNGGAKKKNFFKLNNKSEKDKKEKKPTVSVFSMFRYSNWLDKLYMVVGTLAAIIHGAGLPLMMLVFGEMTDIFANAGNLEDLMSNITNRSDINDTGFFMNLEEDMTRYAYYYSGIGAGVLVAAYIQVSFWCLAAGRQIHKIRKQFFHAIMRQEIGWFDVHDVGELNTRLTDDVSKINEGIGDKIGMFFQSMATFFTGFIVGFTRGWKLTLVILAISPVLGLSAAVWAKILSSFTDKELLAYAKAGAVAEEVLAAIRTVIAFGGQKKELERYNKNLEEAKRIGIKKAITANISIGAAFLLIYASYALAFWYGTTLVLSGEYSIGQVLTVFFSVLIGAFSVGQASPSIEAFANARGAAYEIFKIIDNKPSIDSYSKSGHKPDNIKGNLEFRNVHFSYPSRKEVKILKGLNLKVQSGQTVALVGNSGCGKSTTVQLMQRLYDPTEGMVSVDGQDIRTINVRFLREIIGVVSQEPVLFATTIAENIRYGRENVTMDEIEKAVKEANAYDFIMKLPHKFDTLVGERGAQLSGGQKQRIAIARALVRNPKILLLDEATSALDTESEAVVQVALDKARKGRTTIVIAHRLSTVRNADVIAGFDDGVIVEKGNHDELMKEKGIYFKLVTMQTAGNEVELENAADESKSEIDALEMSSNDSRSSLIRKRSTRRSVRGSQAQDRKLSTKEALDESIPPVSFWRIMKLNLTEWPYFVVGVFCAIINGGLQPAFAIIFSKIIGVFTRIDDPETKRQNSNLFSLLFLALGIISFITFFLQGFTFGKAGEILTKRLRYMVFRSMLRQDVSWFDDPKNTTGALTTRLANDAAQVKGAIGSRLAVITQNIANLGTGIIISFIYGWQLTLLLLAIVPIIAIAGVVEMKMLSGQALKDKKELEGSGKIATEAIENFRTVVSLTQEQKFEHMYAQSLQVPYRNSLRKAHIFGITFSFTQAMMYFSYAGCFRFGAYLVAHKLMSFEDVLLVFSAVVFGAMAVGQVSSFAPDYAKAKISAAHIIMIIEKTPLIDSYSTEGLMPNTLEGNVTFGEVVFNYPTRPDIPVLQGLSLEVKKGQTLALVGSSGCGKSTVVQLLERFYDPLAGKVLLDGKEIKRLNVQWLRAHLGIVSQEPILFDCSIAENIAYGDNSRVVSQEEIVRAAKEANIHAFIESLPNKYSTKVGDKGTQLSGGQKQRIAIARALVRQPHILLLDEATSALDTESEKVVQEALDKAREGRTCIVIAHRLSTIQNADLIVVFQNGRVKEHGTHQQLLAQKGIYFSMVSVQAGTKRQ
# Sequence of ABCC1 (MRP1) (P33527 whole entry): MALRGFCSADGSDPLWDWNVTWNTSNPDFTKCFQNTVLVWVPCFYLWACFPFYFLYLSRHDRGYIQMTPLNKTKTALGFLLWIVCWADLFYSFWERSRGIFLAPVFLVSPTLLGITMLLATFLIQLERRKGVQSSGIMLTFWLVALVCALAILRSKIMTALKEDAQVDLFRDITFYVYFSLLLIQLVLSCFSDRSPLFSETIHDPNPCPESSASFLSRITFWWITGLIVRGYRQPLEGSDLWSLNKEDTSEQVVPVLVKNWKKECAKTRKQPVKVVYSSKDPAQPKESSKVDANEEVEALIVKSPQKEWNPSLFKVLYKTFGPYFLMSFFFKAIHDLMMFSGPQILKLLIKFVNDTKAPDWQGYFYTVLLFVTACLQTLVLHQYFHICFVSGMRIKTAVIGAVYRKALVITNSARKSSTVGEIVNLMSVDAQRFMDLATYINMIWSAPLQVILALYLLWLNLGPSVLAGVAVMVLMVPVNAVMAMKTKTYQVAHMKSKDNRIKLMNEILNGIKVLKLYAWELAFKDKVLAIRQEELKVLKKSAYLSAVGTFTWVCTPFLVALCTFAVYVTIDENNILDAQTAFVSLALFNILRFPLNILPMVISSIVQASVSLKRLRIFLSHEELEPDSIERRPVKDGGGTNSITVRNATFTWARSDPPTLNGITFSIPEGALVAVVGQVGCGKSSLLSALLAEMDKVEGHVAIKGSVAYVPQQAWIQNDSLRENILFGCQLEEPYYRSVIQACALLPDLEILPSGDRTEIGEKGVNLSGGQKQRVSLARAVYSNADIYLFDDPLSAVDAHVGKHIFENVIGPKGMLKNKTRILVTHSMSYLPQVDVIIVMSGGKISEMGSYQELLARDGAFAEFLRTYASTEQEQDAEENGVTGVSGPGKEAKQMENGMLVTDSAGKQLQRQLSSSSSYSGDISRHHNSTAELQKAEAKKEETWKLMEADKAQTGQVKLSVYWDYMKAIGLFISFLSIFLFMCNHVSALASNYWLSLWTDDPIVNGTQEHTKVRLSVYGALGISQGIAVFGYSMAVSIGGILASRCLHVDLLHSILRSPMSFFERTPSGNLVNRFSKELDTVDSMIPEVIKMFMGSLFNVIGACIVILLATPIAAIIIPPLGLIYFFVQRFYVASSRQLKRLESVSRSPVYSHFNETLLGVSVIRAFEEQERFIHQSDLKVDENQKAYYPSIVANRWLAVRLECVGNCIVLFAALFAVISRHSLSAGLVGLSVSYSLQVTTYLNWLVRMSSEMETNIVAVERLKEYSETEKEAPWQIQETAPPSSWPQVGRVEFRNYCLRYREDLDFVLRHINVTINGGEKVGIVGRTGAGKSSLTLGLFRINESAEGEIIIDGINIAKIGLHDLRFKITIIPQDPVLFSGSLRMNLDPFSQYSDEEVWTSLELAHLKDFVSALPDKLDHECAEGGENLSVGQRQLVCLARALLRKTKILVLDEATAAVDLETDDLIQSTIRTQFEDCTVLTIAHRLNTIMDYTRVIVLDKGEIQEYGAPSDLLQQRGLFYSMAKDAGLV
smiles,measurement,setting,value
"ClCc1ccc(C2=c3cc4c5c(c3Oc3c2cc2c6c3CCCN6CCC2)CCC[N+]=5CCC4)cc1.[Cl-] [MitoRed, reference compound]",cells in which mitochondria are stained,[1],both in human iPS cells and feeder cells
N=c1ccc2c(-c3ccc(F)cc3)c3ccc(N)cc3oc-2c1 [Compound 1],staining after partial differentiation by retinoic acid,[2]; 500 nM retinoic acid 4 days,less densely stained parts of colonies
same,staining of human ES cell colonies compared with feeder cells,[2],stained more strongly than feeder cells
same,SSEA-4-negative cells not stained by Compound 1,[3]; [12],55.2%
same,SSEA-4-positive cells also stained by Compound 1,[3]; [12],42.4%
same,specificity of staining for iPS cells,[3]; human iPS cells versus feeder cells,capable of staining iPS cells specifically
same,Compound 1-negative population,[3]; [13],56.6%
same,Compound 1-positive population,[3]; [13],43.4%
same,substrate for ABCG2,[4],not a substrate
same,fluorescence of human ES cells,"[5]; 1 μM, 1 hour, microscopy",strong fluorescence
same,labeling of differentiated cells in the presence of cyclosporine A,[5]; cyclosporine A (MDR1 inhibitor) 10 μM,even the differentiated cells were labeled
same,fluorescence of differentiated cells,"[5]; derived from human ES cells by retinoic acid, 1 μM, 1 hour, microscopy",little
same,staining of human ES cells relative to differentiated cells,[5]; flow cytometric analysis,~100 times
same,substrate for ABCC1 (MRP1),[6],not a substrate
same,staining of donut-shaped iPS cell colonies,[7],selectively stained undifferentiated parts of those colonies but not the central parts
same,fluorescent signals in MDR1-expressing cells,"[8]; KB/MDR1 cells, 2 hrs",undetectable
same,substrate for ABCB1 (MDR1),[8]; KB/MDR1 versus KB3-1,good substrate
same,staining of KB3-1 cells,[9],strongly stained
same,staining pattern in the presence of CCCP,"[1]; CCCP 5 μM, 1 μM, 2 hours",remained the same
same,cells in which mitochondria are stained,[1],only in iPS cells
same,sub-cellular localization,[1],overlaps with that of MitoTracker Red
C/N=c1\ccc2c(-c3ccc(F)cc3)c3ccc(NC)cc3oc-2c1 [Compound 35],staining of human iPS cells compared with feeder cells,[10],stained human iPS cells stronger than feeder cells
N=c1ccc2c(-c3ccc(F)cc3)c3ccc(NCCCCCCCCCCNC(=O)CCl)cc3oc-2c1 [Compound 22],fluorescently labeled mitochondrial protein identified by mass-sequencing,[11],ADH1 protein
same,selectivity for human iPS cells relative to Compound 1,[1]; human iPS cells,slightly less than that of Compound 1
same,sub-cellular localization,[1],localized in mitochondria of human iPS cells
N=c1ccc2c(-c3ccccc3F)c3ccc(N)cc3oc-2c1 [Compound 36],staining of human iPS cells compared with feeder cells,[10],stained human iPS cells stronger than feeder cells
